From PubChem BioAssay AID330 (DTP/NCI, 2004)
Values joined by “and” are separate entries in the source; they are usually repeats but may differ in a detail not shown here. Equal entries are not always repeated. Inconclusive results and toxic doses are left out. Rule for the calls: active = survival T/C of 150% or more; inactive = T/C below 125% in these data.

Test system: P388 leukemia ip, CD2F1 mice, survival T/C
Assay: NCI In Vivo Anticancer Drug Screen. Data for tumor model P388 Leukemia (intraperitoneal) in CD2F1 (CDF1) mice
Details: endpoint: median survival time, higher = longer survival
In short: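 Mice carrying the transplanted tumor received test compound or vehicle. Survival was recorded in each group, and the value is the treated-group measurement divided by that of the vehicle-treated control group.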

[1] = dose: 25.0 mg/kg/injection, schedule: Q01DX005 (ip), vehicle: saline with Tween-80
[2] = dose: 50.0 mg/kg/injection, schedule: Q01DX005 (ip), vehicle: saline with Tween-80
[3] = dose: 100.0 mg/kg/injection, schedule: Q01DX005 (ip), vehicle: saline with Tween-80
[4] = dose: 200.0 mg/kg/injection, schedule: Q01DX005 (ip), vehicle: saline with Tween-80
[5] = dose: 25.0 mg/kg/injection, schedule: Q04DX002 (ip), vehicle: saline with Tween-80
[6] = dose: 100.0 mg/kg/injection, schedule: Q01DX009 (ip), vehicle: saline
[7] = dose: 100.0 mg/kg/injection, schedule: Q04DX003 (ip), vehicle: saline
[8] = dose: 200.0 mg/kg/injection, schedule: Q01DX009 (ip), vehicle: saline
[9] = dose: 200.0 mg/kg/injection, schedule: Q04DX003 (ip), vehicle: saline
[10] = dose: 100.0 mg/kg/injection, schedule: Q04DX003 (ip), vehicle: saline with Tween-80
[11] = dose: 200.0 mg/kg/injection, schedule: Q04DX003 (ip), vehicle: saline with Tween-80
[12] = dose: 400.0 mg/kg/injection, schedule: Q04DX003 (ip), vehicle: saline with Tween-80
[13] = dose: 50.0 mg/kg/injection, schedule: Q01DX005 (ip), vehicle: Klucel (hydroxypropylcellulose) (HPC)
[14] = dose: 100.0 mg/kg/injection, schedule: Q01DX005 (ip), vehicle: Klucel (hydroxypropylcellulose) (HPC)
[15] = dose: 200.0 mg/kg/injection, schedule: Q01DX005 (ip), vehicle: Klucel (hydroxypropylcellulose) (HPC)
[16] = dose: 50.0 mg/kg/injection, schedule: Q01DX009 (ip), vehicle: saline with Tween-80
[17] = dose: 100.0 mg/kg/injection, schedule: Q01DX009 (ip), vehicle: saline with Tween-80
[18] = dose: 50.0 mg/kg/injection, schedule: Q01DX005 (ip), vehicle: saline
[19] = dose: 100.0 mg/kg/injection, schedule: Q01DX005 (ip), vehicle: saline
[20] = dose: 200.0 mg/kg/injection, schedule: Q01DX005 (ip), vehicle: saline

Measured: T/C

C/C(=C/c1nc2ccccc2[nH]1)c1ccccc1
inactive: [1] 100 % of control | [2] 100 % of control and 107 % of control | [3] 121 % of control and 96 % of control | [4] 95 % of control and 96 % of control

C=C1C(=O)O[C@@H]2C[C@@H](C)[C@@H]3[C@@H](OC(C)=O)[C@@H](OC(C)=O)[C@H](OC(C)=O)[C@@]3(C)C[C@H]12
inactive: dose: 9.5 mg/kg/injection, schedule: Q01DX005 (ip), vehicle: Klucel (hydroxypropylcellulose) (HPC) 102 % of control | dose: 19.0 mg/kg/injection, schedule: Q01DX005 (ip), vehicle: Klucel (hydroxypropylcellulose) (HPC) 100 % of control | dose: 38.0 mg/kg/injection, schedule: Q01DX005 (ip), vehicle: Klucel (hydroxypropylcellulose) (HPC) 106 % of control | dose: 76.0 mg/kg/injection, schedule: Q01DX005 (ip), vehicle: Klucel (hydroxypropylcellulose) (HPC) 97 % of control

COc1ccc(OC(N)=O)c2ccccc12
inactive: dose: 25.0 mg/kg/injection, schedule: Q01DX001 (ip), vehicle: Klucel (hydroxypropylcellulose) (HPC) 100 % of control | dose: 50.0 mg/kg/injection, schedule: Q01DX001 (ip), vehicle: Klucel (hydroxypropylcellulose) (HPC) 100 % of control | dose: 100.0 mg/kg/injection, schedule: Q01DX001 (ip), vehicle: Klucel (hydroxypropylcellulose) (HPC) 108 % of control

c1cc2c3c(c1)c1cc4c(cc1c[n+]3CCC2)OCO4
inactive: dose: 3.13 mg/kg/injection, schedule: Q01DX009 (ip), vehicle: water 110 % of control | dose: 25.0 mg/kg/injection, schedule: Q01DX009 (ip), vehicle: water 119 % of control and 120 % of control

CCCCN=C(N)NN=C(c1ccc(C)cc1)c1ccc(C)cc1
inactive: [5] 102 % of control | dose: 50.0 mg/kg/injection, schedule: Q04DX002 (ip), vehicle: saline with Tween-80 99 % of control

O=S(=O)(O)c1cccnc1
inactive: [6] 104 % of control | [7] 100 % of control | [8] 104 % of control | [9] 95 % of control | dose: 400.0 mg/kg/injection, schedule: Q01DX009 (ip), vehicle: saline 95 % of control | dose: 400.0 mg/kg/injection, schedule: Q04DX003 (ip), vehicle: saline 100 % of control

CN=C(N)N/N=C(\C)c1ccc2c(c1)Cc1ccccc1-2
inactive: [5] 122 % of control

O=c1cc(Cc2ccccc2)[nH]c(=S)[nH]1
inactive: [10] 109 % of control | [11] 104 % of control | [12] 100 % of control

CCCCC1CCCCCCc2[nH]c(/C=C3\N=C(c4ccc[nH]4)C=C3OC)cc21 (stereo not given)
inactive: dose: 0.12 mg/kg/injection, schedule: Q01DX009 (ip), vehicle: saline with Tween-80 109 % of control and 116 % of control | dose: 0.25 mg/kg/injection, schedule: Q01DX009 (ip), vehicle: saline with Tween-80 110 % of control and 119 % of control | dose: 0.5 mg/kg/injection, schedule: Q01DX009 (ip), vehicle: saline with Tween-80 115 % of control and 123 % of control | dose: 1.0 mg/kg/injection, schedule: Q01DX009 (ip), vehicle: saline with Tween-80 111 % of control and 90 % of control

CCCCCCCCCCCC1N=C(N)N=C(N)N1c1cccc(Br)c1 (stereo not given)
inactive: dose: 12.5 mg/kg/injection, schedule: Q01DX005 (ip), vehicle: saline with Tween-80 100 % of control | [1] 112 % of control | [2] 97 % of control

N/C(CCSc1ccccc1N=Cc1ccccc1O)=N/O
inactive: dose: 12.5 mg/kg/injection, schedule: Q01DX009 (ip), vehicle: olive oil, sesame oil, peanut oil 102 % of control | dose: 25.0 mg/kg/injection, schedule: Q01DX009 (ip), vehicle: olive oil, sesame oil, peanut oil 104 % of control | dose: 50.0 mg/kg/injection, schedule: Q01DX009 (ip), vehicle: olive oil, sesame oil, peanut oil 104 % of control

COc1cc(C)cc(OC)c1
inactive: dose: 25.0 mg/kg/injection, schedule: Q01DX005 (ip), vehicle: Klucel (hydroxypropylcellulose) (HPC) 101 % of control | [13] 100 % of control | [14] 100 % of control | [15] 110 % of control

Nc1ccc(-c2cc(O)ccc2N)cc1
inactive: dose: 25.0 mg/kg/injection, schedule: Q01DX009 (ip), vehicle: saline with Tween-80 100 % of control | [16] 117 % of control | [17] 110 % of control

COc1c(O)ccc([N+](=O)[O-])c1OC
inactive: dose: 12.5 mg/kg/injection, schedule: Q01DX009 (ip), vehicle: other 96 % of control | dose: 25.0 mg/kg/injection, schedule: Q01DX009 (ip), vehicle: other 98 % of control | dose: 50.0 mg/kg/injection, schedule: Q01DX009 (ip), vehicle: other 105 % of control | dose: 100.0 mg/kg/injection, schedule: Q01DX009 (ip), vehicle: other 102 % of control | dose: 200.0 mg/kg/injection, schedule: Q01DX009 (ip), vehicle: other 97 % of control

Oc1ccccc1-c1nc2c3ccccc3c3ccccc3c2[nH]1
inactive: [2] 113 % of control | [3] 111 % of control | [4] 113 % of control

COc1ccc(CCNC2=CNCC2)cc1OC
inactive: [18] 101 % of control | [19] 98 % of control | [20] 95 % of control

CCOC(=O)c1oc2ccccc2c1CN(CCO)CCO
inactive: [2] 98 % of control | [3] 100 % of control | [4] 105 % of control

NS(=O)(=O)c1cc(Br)ccc1Br
inactive: [10] 99 % of control | [11] 117 % of control | [12] 117 % of control

Nc1nc(Cl)cc2nsnc12
inactive: dose: 100.0 mg/kg/injection, schedule: Q04DX002 (ip), vehicle: saline 97 % of control | dose: 200.0 mg/kg/injection, schedule: Q04DX002 (ip), vehicle: saline 99 % of control | dose: 400.0 mg/kg/injection, schedule: Q04DX002 (ip), vehicle: saline 95 % of control

O=c1ccnc2sccn12
inactive: dose: 100.0 mg/kg/injection, schedule: Q01DX001 (ip), vehicle: saline 109 % of control | dose: 200.0 mg/kg/injection, schedule: Q01DX001 (ip), vehicle: saline 116 % of control | dose: 400.0 mg/kg/injection, schedule: Q01DX001 (ip), vehicle: saline 101 % of control

CSC(C(=O)O)c1cc(-c2c(Cl)cccc2Cl)no1 (stereo not given)
inactive: [2] 104 % of control | [3] 105 % of control | [4] 107 % of control

Nc1nc(N)c(N=O)c(Nc2ccc(Cl)c(Cl)c2)n1
inactive: [10] 100 % of control | [11] 90 % of control

CCOC(=O)CC(N)/C(C)=N\O (stereo not given)
inactive: dose: 60.0 mg/kg/injection, schedule: Q01DX005 (ip), vehicle: Klucel + Tween-80 104 % of control | dose: 120.0 mg/kg/injection, schedule: Q01DX005 (ip), vehicle: Klucel + Tween-80 100 % of control | dose: 240.0 mg/kg/injection, schedule: Q01DX005 (ip), vehicle: Klucel + Tween-80 100 % of control

CCOC(=O)CSC(=O)c1cccnc1Oc1ccccc1
inactive: [13] 94 % of control | [14] 90 % of control | [15] 93 % of control

CCCCCCCCCCC1OCN2CC(CC)CCC12 (stereo not given)
inactive: [18] 100 % of control | [19] 101 % of control | [20] 105 % of control

COc1cc2c(cc1OC)C(Cc1cccs1)=NCC2
inactive: [13] 100 % of control | [14] 94 % of control

CCOC(=O)[C@]1(Br)CC[C@]1(Br)C(=O)OCC
inactive: [16] 106 % of control and 121 % of control | [17] 112 % of control and 114 % of control | dose: 200.0 mg/kg/injection, schedule: Q01DX009 (ip), vehicle: saline with Tween-80 117 % of control and 122 % of control | dose: 400.0 mg/kg/injection, schedule: Q01DX009 (ip), vehicle: saline with Tween-80 123 % of control

Cc1cc(C)n(-c2cc(N3CCOCC3)ncn2)n1
inactive: dose: 50.0 mg/kg/injection, schedule: Q01DX009 (ip), vehicle: saline 96 % of control | [6] 95 % of control | [8] 98 % of control

CN(CCc1ccccn1)c1ccc2c(c1)Cc1ccccc1-2
inactive: [13] 98 % of control | [14] 93 % of control

Nc1nc(SCc2ccccc2)sc1C(=O)N(Cc1ccccc1)Cc1ccccc1
inactive: dose: 50.0 mg/kg/injection, schedule: Q01DX009 (ip), vehicle: Klucel (hydroxypropylcellulose) (HPC) 98 % of control | dose: 100.0 mg/kg/injection, schedule: Q01DX009 (ip), vehicle: Klucel (hydroxypropylcellulose) (HPC) 100 % of control | dose: 200.0 mg/kg/injection, schedule: Q01DX009 (ip), vehicle: Klucel (hydroxypropylcellulose) (HPC) 100 % of control

CC(C)C[N+]1(Cc2ccc(Cl)cc2Cl)CCOCC1
inactive: [7] 101 % of control | [9] 93 % of control
